Assay [1] concerns cabbage alternaria sooty spot fungi (Alternaia brassicicola). Nature of the assay: Test Example C: cabbage alternaria sooty spot, spray test on potted cabbage plants. As to conditions: in Brassica oleracea, read-out: control value.
Excerpt: Control value=100{1−(n/3)}
Test plants (cabbage variety: Shikidori) were cultivated until the cotyledons extended after the sowing of seeds.
Assay [2] relates to cucumber anthracnose fungi (Colletotrichum orbiculare). Nature of the assay: Test Example H: cucumber anthracnose, spray test on potted cucumber plants. As to conditions: in Cucumis sativus, read-out: control value.
In assay [3] the test system is gray mold fungi (Botrytis cinerea). Description: Test Example B: tomato gray mold, spray test on potted tomato plants. As to conditions: in Solanum lycopersicum, read-out: control value.
Excerpt: Control value=100{1−(n/3)}
Test plants (tomato variety: Oogata Fukuju) were cultivated until three to five first leaves (true leaves) appeared after the sowing of seeds.

On to `CCn1c(-c2c(F)cccc2F)c(NC(=O)OC(C)(C)C)cc(Cl)c1=O` [Compound 1, tert-butyl (5-chloro-2-(2,6-difluorophenyl)-1-ethyl-6-oxo-1,6-dihydropyridin-3-yl)carbamate], for which the pest or weed control at 250 ppm in assay [1] is greater than 50%.

`CCn1c(-c2c(F)cccc2F)c(N(C)C(=O)OC(C)(C)C)cc(Cl)c1=O` [Compound 2, tert-butyl (5-chloro-2-(2,6-difluorophenyl)-1-ethyl-6-oxo-1,6-dihydropyridin-3-yl)(methyl)carbamate]: the pest or weed control at 250 ppm in assay [1] is greater than 50%.

As for `CCn1c(-c2c(F)cccc2F)c(NC)cc(Cl)c1=O` [Compound 3, 3-chloro-6-(2,6-difluorophenyl)-1-ethyl-5-(methylamino)-pyridin-2(1H)-one], the pest or weed control at 250 ppm in assay [2] and in assay [1] was greater than 50% throughout.

Take `CCn1c(-c2c(F)cccc2F)c(N(C)C)cc(Cl)c1=O` [Compound 4, 3-chloro-6-(2,6-difluorophenyl)-5-(dimethylamino)-1-ethyl-pyridin-2(1H)-one]: the pest or weed control at 250 ppm in assay [3], in assay [2] and in assay [1] was greater than 50% in each case.

Take `CCN(C)c1cc(Cl)c(=O)n(CC)c1-c1c(F)cccc1F` [Compound 5, 3-chloro-6-(2,6-difluorophenyl)-1-ethyl-5-(ethyl(methyl)-amino)pyridin-2(1H)-one]: the pest or weed control at 250 ppm in assay [3], in assay [2] and in assay [1] was greater than 50% throughout.

For the molecule `CCn1c(-c2c(F)cccc2F)c(N=CN2CCCC2)cc(Cl)c1=O` [Compound 8, 3-chloro-6-(2,6-difluorophenyl)-1-ethyl-5-((pyrrolidin-1-yl-methylene)amino)pyridin-2(1H)-one], the pest or weed control at 250 ppm in assay [3], in assay [2] and in assay [1] was greater than 50% throughout.

Regarding `CCN(C(=O)OC(C)(C)C)c1cc(Cl)c(=O)n(CC)c1-c1ccc(F)cc1` [Compound 17, tert-butyl (5-chloro-1-ethyl-2-(4-fluorophenyl)-6-oxo-1,6-dihydropyridin-3-yl)(ethyl)carbamate], in assay [2], the pest or weed control at 250 ppm is greater than 50%.

Consider `CCNc1cc(Cl)c(=O)n(CC)c1-c1ccc(F)cc1` [Compound 20, 3-chloro-1-ethyl-5-(ethylamino)-6-(4-fluorophenyl)pyridin-2(1H)-one], for which the pest or weed control at 250 ppm in assay [2] was greater than 50%.

As to `CCn1c(-c2ccc(F)cc2Cl)c(NC(=O)OC(C)(C)C)cc(Cl)c1=O` [Compound 27, tert-butyl (5-chloro-2-(2-chloro-4-fluorophenyl)-1-ethyl-6-oxo-1,6-dihydropyridin-3-yl)carbamate], in assay [3], the pest or weed control at 250 ppm was greater than 50%.

Consider `CCn1c(-c2ccc(F)cc2Cl)c(N)cc(Cl)c1=O` [Compound 32, 5-amino-3-chloro-6-(2-chloro-4-fluorophenyl)-1-ethylpyridin-2(1H)-one], for which the pest or weed control at 250 ppm in assay [2] is greater than 50%.

Regarding `CCn1c(-c2ccc(F)cc2Cl)c(N2CCCCC2)cc(Cl)c1=O` [Compound 44, 3-chloro-6-(2-chloro-4-fluorophenyl)-1-ethyl-5-(piperidin-1-yl)pyridin-2(1H)-one], the pest or weed control at 250 ppm in assay [3], in assay [2] and in assay [1] was greater than 50% each time.

Turning to `CCn1c(-c2c(F)cccc2F)c(N)cc(Cl)c1=O` [Compound 59, 5-amino-3-chloro-6-(2,6-difluorophenyl)-1-ethylpyridin-2(1H)-one], in assay [2], the pest or weed control at 250 ppm was greater than 50%.

Regarding `CCn1c(-c2c(F)cccc2F)c(Nc2ccccc2)cc(Cl)c1=O` [compound 317, 3-chloro-6-(2,6-difluorophenyl)-1-ethyl-5-(phenylamino)pyridin-2(1H)-one], the pest or weed control at 250 ppm in assay [3], in assay [2] and in assay [1] was greater than 50% each time.

Turning to `CCn1c(-c2ccc(F)cc2Cl)c(N2CCC(C)CC2)cc(Cl)c1=O` [compound 365, 3-chloro-6-(2-chloro-4-fluorophenyl)-1-ethyl-5-(4-methyl-piperidin-1-yl)pyridin-2(1H)-one], the pest or weed control at 250 ppm in assay [3], in assay [2] and in assay [1] was greater than 50% each time.

Turning to `CCn1c(-c2c(F)cccc2F)c(N2CCOCC2)cc(Cl)c1=O` [compound 426, 3-chloro-6-(2,6-difluorophenyl)-1-ethyl-5-morpholinopyridin-2(1H)-one], the pest or weed control at 250 ppm in assay [3], in assay [2] and in assay [1] was greater than 50% throughout.

For the origin of these results see US20200172486A1, “PYRIDONE COMPOUNDS AND AGRICULTURAL AND HORTICULTURAL FUNGICIDES CONTAINING THE SAME AS ACTIVE INGREDIENTS” (MITSUI CHEMICALS AGRO, INC., priority 2017, published 2020).
